How the values were obtained:
Assay type in all cases: cell-based, human
2102EP cells = test: XTT cell viability assay, 2102EP
Protocol: (§1) The following cell lines were used 2102EP, 2102EP-R, NCCIT, NCCIT-R (all ECs), TCam2 (seminoma cell line), FS1 (Sertoli cell line) and MPAF (human adult fibroblast cell line). Cells were cultivated as described previously. In brief, the ECs were cultivated in Dulbecco’s modified Eagle’s medium (DMEM) supplemented with 10% fetal bovine serum (FBS), 1% penicillin–streptomycin and […] L-glutamine. FS1 cells were grown in DMEM supplemented with 20% FSB, 1% penicillin–streptomycin, 200 mM L-glutamine and 1% nonessential amino acids (NEAA). MPAF cells were cultured in DMEM supplemented with 10% FBS, 1% penicillin–streptomycin, 200 mM L-glutamine and 1% NEAA. TCam2 cell line was cultured in RPMI medium supplemented with 10% FBS, 1% penicillin–streptomycin and […] L-glutamine. All cell lines were kept at 37 °C and 7.5% CO2. 2102EP and NCCIT were a kind gift from Prof. Dr. L. Looijenga (Princess Máxima Center for Pediatric Oncology, Utrecht, The Netherlands). Cisplatin-resistant lines 2102EP-R and NCCIT-R were obtained from PD Dr. F. Honecker (Breast and Tumor Center, ZeTup Silberturm, St. Gallen, Switzerland). MPAFs were a kind gift from […] (Bonn University, Institute of Reconstructive Neurobiology, Bonn, Germany). FS1 cells were obtained from Prof. Dr. V. Schumacher (Boston Children’s Hospital, Department of Urology; Harvard Medical School, Department of Surgery, Boston, MA, USA).
(§2) The assay was performed based on the reduction in XTT tetrazolium salt as described previously. In summary, 3000 cells were seeded per well of a 96-well cell culture plate in 100 µL of cell culture medium. The next day, cells were treated with CDK inhibitor or CDK degrader for 24/48/72 h. For XTT assay, 0.6 mg/mL XTT sodium salt was dissolved in cell culture medium (DMEM or RPMI) and supplemented with 25 µM electron carrier N-methyl dibenzopyrazine methyl sulfate (PMS). A total of 50 µL of XTT/PMS was added to each well and incubated for 4 h at 37 °C, 7.5% CO2. For readout, absorption was measured at 450 nm and 650 nm. Specific XTT signal (450 nm) was subtracted by nonspecific absorbance (650) and blank (cell culture medium). Averages of technical triplicates were calculated, and treated sample was referenced to the corresponding dimethyl sufoxide (DMSO) control. Experiment was repeated several times to obtain biological replicates. For statistical analysis, two-tailed Student’s t-test was applied.

FS1 cells = test: XTT cell viability assay, FS1 Sertoli control
Protocol: as §1, §2

TCam2 cells = test: XTT cell viability assay, TCam2
Protocol: as §1, §2

2102EP-R cells = test: XTT cell viability assay, 2102EP-R (cisplatin-resistant)
Protocol: as §1, §2

NCCIT-R cells = test: XTT cell viability assay, NCCIT-R (cisplatin-resistant)
Protocol: as §1, §2

MPAF cells = test: XTT cell viability assay, MPAF fibroblast control; settings: for IC50: XTT viability
Protocol: as §1, §2

NCCIT cells = test: XTT cell viability assay, NCCIT
Protocol: as §1, §2

[1] = tested on: TGCT and control cell lines; test: 7AAD/AnnexinV FACS apoptosis analysis, TGCT and control cell lines; settings: 100 nM, 24 and 48 h
Protocol: (§3) Cells were seeded in 6-well cell culture plates (1.5 × 10^5 cells/well). […] For cell cycle analysis, cells were harvested after 20 h of treatment and resuspended in PBS. Ice-cold methanol was added dropwise while shaking until 70% methanol v/v was reached. Cells were incubated for 2 h at 4 °C and subsequently washed twice with cold PBS. Staining (2 µg/mL Hoechst-33342, 50 µg/mL RNaseA in PBS) was performed for 30 min at 37 °C. The cell cycle distribution was measured in an FACS Canto (BD BioSciences, Heidelberg, Germany) and analyzed using FlowJo™ v10.8 Software (BD BioSciences, Heidelberg, Germany). For apoptosis analysis, PE AnnexinV Apoptosis Detection Kit with 7-AAD (BioLegend, San Diego, CA USA) was used according to the manufacturer’s manual. Measurement was performed in an FACS Canto while analysis was performed in the corresponding BD FACSDiva software^TM (BD BioSciences, Heidelberg, Germany). Two-tailed Student’s t-test was applied for calculation of significance.

[2] = tested on: TGCT and control cell lines; test: Hoechst-FACS cell cycle analysis; settings: 20 h; NVP2 and SY0351 10 nM, YKL-5-124 and THZ531 100 nM
Protocol: as §3

TGCT cell lines = test: XTT cell viability assay, summarised over TGCT tumor cell lines; settings: for viability (XTT): EC cell lines (2102EP, 2102EP-R, NCCIT, NCCIT-R); for IC50: Homo sapiens, 72 h, tumor (TGCT) cell lines, XTT viability, read-out: IC50 at 72 h, range over tumor cell lines
Protocol: as §1, §2

CN(C)C/C=C/C(=O)Nc1ccc(C(=O)N2CCC[C@@H](Nc3ncc(Cl)c(-c4c[nH]c5ccccc45)n3)C2)cc1 [THZ531]
IC50 (2102EP cells; Homo sapiens, 24 h): > 1 µM | IC50 (2102EP cells; Homo sapiens, 48 h): 0.18 µM | IC50 (2102EP cells; Homo sapiens, 72 h): 0.0745 µM | IC50 (FS1 cells; Homo sapiens, FS1, 24 h): > 1 µM | IC50 (FS1 cells; Homo sapiens, FS1, 48 h): > 1 µM | IC50 (FS1 cells; Homo sapiens, FS1, 72 h): > 1 µM | IC50 (TCam2 cells; Homo sapiens, TCam2, 24 h): > 1 µM | IC50 (TCam2 cells; Homo sapiens, TCam2, 48 h): > 1 µM | IC50 (TCam2 cells; Homo sapiens, TCam2, 72 h): > 1 µM | IC50 (2102EP-R cells; Homo sapiens, 24 h): > 1 µM | IC50 (2102EP-R cells; Homo sapiens, 48 h): 0.228 µM | IC50 (2102EP-R cells; Homo sapiens, 72 h): 0.164 µM | IC50 (NCCIT-R cells; Homo sapiens, 24 h): > 1 µM | IC50 (NCCIT-R cells; Homo sapiens, 48 h): > 1 µM | IC50 (NCCIT-R cells; Homo sapiens, 72 h): 0.137 µM | IC50 (MPAF cells; Homo sapiens, Fibroblast, 24 h): > 1 µM | IC50 (MPAF cells; Homo sapiens, Fibroblast, 48 h): > 1 µM | IC50 (MPAF cells; Homo sapiens, Fibroblast, 72 h): > 1 µM | IC50 (NCCIT cells; Homo sapiens, 24 h): > 1 µM | IC50 (NCCIT cells; Homo sapiens, 48 h): > 1 µM | IC50 (NCCIT cells; Homo sapiens, 72 h): 0.0966 µM | apoptosis induction ([1]; tumor cell lines): moderate increase in apoptosis induction | effect on cell cycle [2]: only mild effects on the cell cycle

C=CC(=O)Nc1ccc(C(=O)Nc2[nH]nc3c2CN(C(=O)N[C@H](CN(C)C)c2ccccc2)C3(C)C)cc1 [YKL-5-124]
IC50 (2102EP cells; 24 h): 0.318 µM | IC50 (2102EP cells; 48 h): 0.0436 µM | IC50 (2102EP cells; 72 h): 0.0172 µM | IC50 (FS1 cells; FS1, 24 h): > 1 µM | IC50 (FS1 cells; FS1, 48 h): > 1 µM | IC50 (FS1 cells; FS1, 72 h): 0.0952 µM | IC50 (TCam2 cells; TCam2, 24 h): > 1 µM | IC50 (TCam2 cells; TCam2, 48 h): > 1 µM | IC50 (TCam2 cells; TCam2, 72 h): 0.263 µM | IC50 (2102EP-R cells; 24 h): > 1 µM | IC50 (2102EP-R cells; 48 h): 0.0305 µM | IC50 (2102EP-R cells; 72 h): 0.0236 µM | IC50 (NCCIT-R cells; 24 h): > 1 µM | IC50 (NCCIT-R cells; 48 h): > 1 µM | IC50 (NCCIT-R cells; 72 h): 0.178 µM | IC50 (MPAF cells; 24 h): > 1 µM | IC50 (MPAF cells; 48 h): > 1 µM | IC50 (MPAF cells; 72 h): > 1 µM | viability (XTT) (MPAF cells; highest concentration tested (500 nM)): unaffected | IC50 (NCCIT cells; 24 h): > 1 µM | IC50 (NCCIT cells; 48 h): > 1 µM | IC50 (NCCIT cells; 72 h): 0.121 µM | apoptosis, fold change over DMSO control [1]: up to 2.8 fold | apoptosis, treatment vs control ([1]; FS1 and MPAF cells): almost no difference between treatment and control | effect on cell cycle [2]: only mild effects on the cell cycle

CCc1cnn2c(NCc3ccc[n+]([O-])c3)cc(N3CCCC[C@H]3CCO)nc12 [Dinaciclib, dinaciclib]
viability (XTT) (TGCT cell lines; 1 nM): strong decrease in viability | sensitivity (XTT viability) (MPAF cells): almost resistant

CN(C)C/C=C/C(=O)Nc1ccc(C(=O)Nc2cccc(Nc3ncc(Cl)c(-c4c[nH]c5ccccc45)n3)c2)cc1 [THZ1]
IC50 (2102EP cells; 24 h): 0.0956 µM | IC50 (2102EP cells; 48 h): 0.0263 µM | IC50 (2102EP cells; 72 h): 0.0067 µM | IC50 (FS1 cells; FS1, 24 h): > 1 µM | IC50 (FS1 cells; FS1, 48 h): > 1 µM | IC50 (FS1 cells; FS1, 72 h): > 1 µM | IC50 (TCam2 cells; TCam2, 24 h): > 1 µM | IC50 (TCam2 cells; TCam2, 48 h): > 1 µM | IC50 (TCam2 cells; TCam2, 72 h): 0.847 µM | IC50 (2102EP-R cells; 24 h): 0.235 µM | IC50 (2102EP-R cells; 48 h): 0.0163 µM | IC50 (2102EP-R cells; 72 h): 0.0099 µM | IC50 (NCCIT-R cells; 24 h): 0.929 µM | IC50 (NCCIT-R cells; 48 h): 0.145 µM | IC50 (NCCIT-R cells; 72 h): 0.0162 µM | IC50 (MPAF cells; 24 h): > 1 µM | IC50 (MPAF cells; 48 h): > 1 µM | IC50 (MPAF cells; 72 h): > 1 µM | IC50 (NCCIT cells; 24 h): > 1 µM | IC50 (NCCIT cells; 48 h): 0.0929 µM | IC50 (NCCIT cells; 72 h): 0.0093 µM

CN1CC[C@H](c2c(O)cc(O)c3c(=O)cc(-c4ccccc4Cl)oc23)[C@H](O)C1 [Flavo-Piridol, flavopiridol]
viability (XTT) (TGCT cell lines; 50 nM): strong decrease in viability | IC50 (TGCT cell lines): 0.0075 to 0.273 µM | IC50 (2102EP cells; Homo sapiens, 24 h): > 1 µM | IC50 (2102EP cells; Homo sapiens, 48 h): 0.0399 µM | IC50 (2102EP cells; Homo sapiens, 72 h): 0.018 µM | IC50 (FS1 cells; Homo sapiens, FS1, 24 h): > 1 µM | IC50 (FS1 cells; Homo sapiens, FS1, 48 h): 0.696 µM | IC50 (FS1 cells; Homo sapiens, FS1, 72 h): 0.0915 µM | IC50 (TCam2 cells; Homo sapiens, TCam2, 24 h): > 1 µM | IC50 (TCam2 cells; Homo sapiens, TCam2, 48 h): 0.582 µM | IC50 (TCam2 cells; Homo sapiens, TCam2, 72 h): 0.273 µM | IC50 (2102EP-R cells; Homo sapiens, 24 h): > 1 µM | IC50 (2102EP-R cells; Homo sapiens, 48 h): 0.0219 µM | IC50 (2102EP-R cells; Homo sapiens, 72 h): 0.00756 µM | IC50 (NCCIT-R cells; Homo sapiens, 24 h): 0.639 µM | IC50 (NCCIT-R cells; Homo sapiens, 48 h): 0.107 µM | IC50 (NCCIT-R cells; Homo sapiens, 72 h): 0.0433 µM | sensitivity (XTT viability) (MPAF cells): almost resistant | IC50 (MPAF cells; Homo sapiens, Fibroblast, 24 h): > 1 µM | IC50 (MPAF cells; Homo sapiens, Fibroblast, 48 h): > 1 µM | IC50 (MPAF cells; Homo sapiens, Fibroblast, 72 h): > 1 µM | IC50 (NCCIT cells; Homo sapiens, 24 h): 0.71 µM | IC50 (NCCIT cells; Homo sapiens, 48 h): 0.0219 µM | IC50 (NCCIT cells; Homo sapiens, 72 h): 0.0341 µM

CC(C)(C)c1cnc(CSc2cnc(NC(=O)C3CCN(CC(=O)NCCOCCOCCOCCNc4cccc5c4C(=O)N(C4CCC(=O)NC4=O)C5=O)CC3)s2)o1 (centres unmarked) [THAL-SNS-032]
IC50 (TGCT cell lines): 0.03 to 0.04 µM | IC50 (2102EP cells; Homo sapiens, 24 h): 0.164 µM | IC50 (2102EP cells; Homo sapiens, 48 h): 0.0395 µM | IC50 (2102EP cells; Homo sapiens, 72 h): 0.0348 µM | IC50 (FS1 cells; Homo sapiens, FS1, 24 h): > 1 µM | IC50 (FS1 cells; Homo sapiens, FS1, 48 h): > 1 µM | IC50 (FS1 cells; Homo sapiens, FS1, 72 h): > 1 µM | IC50 (TCam2 cells; Homo sapiens, TCam2, 24 h): 0.14 µM | IC50 (TCam2 cells; Homo sapiens, TCam2, 48 h): 0.0767 µM | IC50 (TCam2 cells; Homo sapiens, TCam2, 72 h): 0.0396 µM | viability (XTT) (MPAF cells; 1 and 10 nM): not affected | viability (XTT) (MPAF cells; 100 and 500 nM): minimal decrease in viability | IC50 (MPAF cells; Homo sapiens, Fibroblast, 24 h): > 1 µM | IC50 (MPAF cells; Homo sapiens, Fibroblast, 48 h): > 1 µM | IC50 (MPAF cells; Homo sapiens, Fibroblast, 72 h): > 1 µM | IC50 (NCCIT cells; Homo sapiens, 24 h): 0.149 µM | IC50 (NCCIT cells; Homo sapiens, 48 h): 0.0506 µM | IC50 (NCCIT cells; Homo sapiens, 72 h): 0.0301 µM
